Experimental data as given in US20250332143A1, “COMPOSITION COMPRISING ALOX5 INHIBITOR FOR PREVENTING OR TREATING SARCOPENIA” (PLUTO Inc., priority 2022, published 2025).

Experiments:
[1] = test system: Dex-treated C2C12 myotubes; experiment: Dex-induced myotube atrophy, myosin heavy chain immunostaining, myotube diameter; format: cell-based, mouse; conditions: 10 μM Dex 24 h
Procedure: (§1) C2C12 murine skeletal muscle myoblasts were obtained from Koram Biotech (Republic of Korea). The cells were maintained in DMEM growth medium supplemented with 10% FBS, 1% penicillin, and streptomycin. When myoblasts proliferated to approximately 90%, they were differentiated into muscle fibers by treating them with DMEM differentiation medium supplemented with 2% HS, 1% penicillin, and streptomycin for 96 hours. Differentiated muscle fibers were treated with 10 μM Dex for 24 hours to induce sarcopenia. To evaluate the degree of differentiation of muscle cells, differentiating myoblasts were treated with the corresponding compound in differentiation medium for 24 or 48 hours.
Muscle fibers were stained using immunochemical staining using myosin heavy chain antibody. Specifically, the muscle fibers were rinsed three times with PBS and then fixed with a 3.7% formaldehyde solution. After rinsing with PBS, a transparency process was performed with 0.2% TritonX-100 solution, and additional rinsing was performed with PBS. They were blocked with 1% bovine serum albumin solution (1% BSA in PBS-T) and incubated with primary antibody overnight at 4° C. After washing with PBS, the secondary antibody was treated for 1 hour. Afterwards, the myotubes were counterstained with 1 μM DAPI in PBS. Fluorescence images of stained myotubes in five different areas were obtained using a DMI 3000 B microscope (Leica, Germany) and analyzed using ImageJ 1.52 software (National Institutes of Health, Bethesda, MD, USA). Myotubes were classified as myosin heavy chain positive cells containing four or more nuclei, and the diameter of muscle fibers containing four or more nuclei was measured.

FoxO3a = experiment: Western blot of FoxO3a phosphorylation and Atrogin-1 in Dex-treated myotubes; format: cell-based, mouse
Procedure: C2C12 murine skeletal muscle myoblasts were obtained from Koram Biotech (Republic of Korea). The cells were maintained in DMEM growth medium supplemented with 10% FBS, 1% penicillin, and streptomycin. When myoblasts proliferated to approximately 90%, they were differentiated into muscle fibers by treating them with DMEM differentiation medium supplemented with 2% HS, 1% penicillin, and streptomycin for 96 hours. Differentiated muscle fibers were treated with 10 μM Dex for 24 hours to induce sarcopenia. To evaluate the degree of differentiation of muscle cells, differentiating myoblasts were treated with the corresponding compound in differentiation medium for 24 or 48 hours. The concentration of intracellular protein was measured using the Bradford assay (Bio-Rad, USA, CA), and electrophoresis was performed by loading on 10% and 12% polyacrylamide gels. Afterwards, the separated proteins were transferred to a PVDF membrane, and the primary antibody used was diluted 1:1000 in TBS-T containing 5% skim milk and incubated overnight at 4° C. Secondary antibodies were diluted 1:2000 and incubated for 35 minutes at room temperature (RT). Band intensity was measured using ImageJ 1.52 software (National Institutes of Health, USA), and intracellular protein was normalized to α-tubulin.

LTB4 = LTB4 ELISA in C2C12 muscle fibers; format: cell-based, mouse; conditions: Dex-treated myotubes
Procedure: as §1, with “48 hours. An LTB4 ELISA kit was purchased from MyBioSource (CA, USA). The concentrations of LTB4 in skeletal muscles and cell lysates were measured by the enzyme-linked […] method according to the manufacturer's instructions. Samples (100 μL) were maintained at room temperature (RT) for 1 hour in 96 wells with polyclonal LTB4 antibody. Afterwards, an enzymatic reaction was performed to stop the process, and the absorbance was measured at 405 nm.” for “48 hours.”

Alox5 = target: T1, Alox5 (Homo sapiens, UniProt P09917); conditions: cited from earlier work
T1 sequence (P09917 1-674): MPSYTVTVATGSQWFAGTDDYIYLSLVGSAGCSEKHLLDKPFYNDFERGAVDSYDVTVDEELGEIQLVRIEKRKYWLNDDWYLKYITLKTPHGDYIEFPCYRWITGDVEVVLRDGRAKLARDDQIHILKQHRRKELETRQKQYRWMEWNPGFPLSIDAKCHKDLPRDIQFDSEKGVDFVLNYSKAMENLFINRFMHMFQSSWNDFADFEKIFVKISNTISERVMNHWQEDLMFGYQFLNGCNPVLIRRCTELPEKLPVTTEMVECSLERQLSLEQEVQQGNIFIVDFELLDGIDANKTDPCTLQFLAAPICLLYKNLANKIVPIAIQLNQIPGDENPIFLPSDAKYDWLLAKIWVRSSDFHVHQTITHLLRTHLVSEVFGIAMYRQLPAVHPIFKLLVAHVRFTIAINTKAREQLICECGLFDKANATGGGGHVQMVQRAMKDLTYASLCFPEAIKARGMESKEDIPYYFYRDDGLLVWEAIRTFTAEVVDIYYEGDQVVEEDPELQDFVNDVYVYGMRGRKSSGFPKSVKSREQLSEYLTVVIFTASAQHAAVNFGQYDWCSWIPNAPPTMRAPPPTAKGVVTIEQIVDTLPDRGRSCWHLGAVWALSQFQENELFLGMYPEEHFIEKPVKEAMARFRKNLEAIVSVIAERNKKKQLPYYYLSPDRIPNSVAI

Compound: CC(C)OC(=O)C(C(=O)OC(C)C)=C1SC=CS1 [malotilate, Malotilate]
- diameter of muscle fibers (C2C12 myotubes) ([1]; zileuton 10 µM, wedelolactone 20 μM (FIGS. 2, 3)): recovered
- myotube atrophy in Dex-treated myotubes ([1]; C2C12 myotubes): inhibited the effect of Dex on myotube atrophy
- Atrogin-1 expression (Western blot) (FoxO3a): decrease
- FoxO3a phosphorylation levels (FoxO3a; Western blot): increased
- LTB4 levels (LTB4): lowered
- Alox5 inhibition selectivity (Alox5): selective inhibitor of Alox5
